Publication PMC7667655, “Targeted Covalent Inhibition of Plasmodium FK506 Binding Protein 35” (ACS Medicinal Chemistry Letters, 2020)
In brackets after ≈: the same amount, converted by molar mass. Where two headings read alike, the source gives them in different places.

Assays:
[1] = biological target: T1, FBD35 (PfFKBP35 binding domain) (Plasmodium falciparum, UniProt Q8I4V8); assay: Differential scanning calorimetry, FBD35; details: read-out: FBD35 ΔTM
T1 construct: FKBP35 Q5 -A128; 6His-SUMO (N, cleaved yes); made in house; host or cells: E. coli BL21 DE3
T1 sequence (Q8I4V8 5-128): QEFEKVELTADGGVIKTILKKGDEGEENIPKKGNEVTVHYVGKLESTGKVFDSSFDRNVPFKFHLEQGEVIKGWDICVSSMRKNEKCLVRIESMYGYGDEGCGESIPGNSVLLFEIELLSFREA

[2] = biological target: T2, nLuc-tagged full length PfFKBP35 (Plasmodium falciparum, UniProt Q8I4V8); assay: NanoBRET cellular target engagement, nLuc-FKBP35; type: cell-based
T2 construct: nanoluciferase-tagged (nLuc) full length PfFKBP35 or nLuc-tagged FKBP12; expressed in transfected cells
T2 sequence (Q8I4V8 whole entry): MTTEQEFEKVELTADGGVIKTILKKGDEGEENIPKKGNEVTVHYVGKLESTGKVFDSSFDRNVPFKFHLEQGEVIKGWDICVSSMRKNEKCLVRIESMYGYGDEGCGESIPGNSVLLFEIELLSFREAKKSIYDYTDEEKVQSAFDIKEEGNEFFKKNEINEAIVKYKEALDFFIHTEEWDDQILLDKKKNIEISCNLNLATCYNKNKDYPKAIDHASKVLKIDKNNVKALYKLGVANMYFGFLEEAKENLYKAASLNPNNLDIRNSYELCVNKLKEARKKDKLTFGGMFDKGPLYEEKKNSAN

[3] = system: NF54 P. falciparum parasites; assay: P. falciparum strain NF54 growth-inhibition assay; type: cell-based; details: Plasmodium falciparum; luciferase reporter NF54 line, 72 h
Method: Figure 6 P. falciparum strain NF54 growth-inhibition assay. […] Proliferation was measured by luminescence after a complete life-cycle and normalized to DMSO (100%) and chloroquine (100 nM, 0%). (B) Structural differences between synthetic ligands and compound IC50s (μM).
Substrate and Extracellular NanoLuc® Inhibitor (Promega, cat. N2160) were diluted at 1:166 and 1:500, respectively, in Opti -MEM I Reduced Serum Media. 25 µL of this solution was added to each well and plate was read immediately using an EnVision Multimode Plate Reader (PerkinElmer). The BRET ratio was calculated using the following formula:
BRET ratio = acceptorsample – acceptorno tracer control donorsample donorno tracer control
NanoBRET Target Engagement Assay (384-well)
HEK293T cells stably expressing either nLuc-FKBP12 or nLuc-FKBP35 were plated at 0.2×10^6 cells/mL in white, clear -bottom 384-well plates (Sigma Aldrich) in Opti -MEM I Reduced Serum Media (ThermoFisher Scientific) using a Mutidrop Combi Reagent Dispenser (ThermoFisher Scientific). Cells were incubated overnight at 37 °C, 5% CO 2. Using a Tecan D300e, the Rap-Gly-BDP tracer was added to cells to 1 µM. Plates were shaken at 700 RPM on an orbital plate shaker and incubated at 37 °C, 5% CO 2 for 10 minutes. Test compounds were added at the indicated concentrations using a Tecan D300e. Plates were shaken at 700 RPM on an orbital plate shaker and incubated at 37 °C, 5% CO 2 for 2 hours. NanoBRET Nano -Glo Substrate and Extracellular NanoLuc® Inhibitor (Promega, cat. N2160) were diluted at 1:166 and 1:500, respectively, in Opti-MEM I Reduced Serum Media. 10 µL of this solution was added to each well and plate was read immediately using an EnVision Multimode Plate Reader (PerkinElmer). The BRET ratio was calculated using the above formula.
Parasite Culture and Inhibition
NF54 P. falciparum parasites constitutively expressing Renilla luciferase (RLuc) and Blasticidin-S deaminase under the PfHsp86 5’ and PfHRP2 3‘ regulatory sequences integrated in the cg6 chromosomal locus 4 were maintained continuous ly in media consisting of human erythrocytes at 2% haematocrit (O+) resuspended in RPMI 1640 (Gibco® 31800022) supplemented with 5% Albumax (Gibco® 11021045; complete medium) and 2.5 µg/mL of Blasticidin (RPI Corp B12150-0.1) in a gas mixture consisting of 5% CO2, 1% O2, and 94% N2 at 37 °C (Trager and Jensen 2005).
Parasitemia was determined every 48 h through microscopic examination of thin blood smears fixed in methanol, stained with 10% Giemsa solution, and sub-cultured to 0.5-1% parasitaemia.
Compound susceptibility assays
(§1) In 96-well round-bottom plates, sorbitol -synchronized cultures of ring-stage NF54 P. falciparum parasites were established in triplicate and treated with varying concentrations of the inhibitors (25-0.0038 μM) serially diluted in complete medium. Parasite proliferation rates were analyzed after 72 h using the Renilla-Glo Luciferase Assay, and luminescence was measured using the GloMax® Discover Microplate Reader. EC 50 values were obtained from corrected dose-response curves using GraphPad Prism (version 5; GraphPad Software). Data represent the mean % luminescence relative to 5% DMSO-treated (vehicle, 100% growth) and 100 nM chloroquine-treated (no growth) controls.
(§2) In black, clear-bottom 96-well plates (No. 3904 Corning Life Sciences), HEK293T cells were plated at 2x10^5 cells/mL in DMEM high glucose, pyruvate media (ThermoFisher Scientific, cat. 11995073) supplemented with 10% FBS and 1% pen -strep (100 μL final volume). Cells were incubated overnight at 37°C, 5% CO2. Using a Tecan D300e digital dispenser, cells were dosed in triplicate […]
concentration, 100 mM stock in DMSO) and Carfilzomib (10 µM to 4.6 nM final concentration, 10 mM stock in DMSO) normalizing DMSO to 0.25%. Cells were then incubated at 37 °C, 5% CO2 for 72 hours. Following incubation, cells were treated with 70 µL CellTiter-Glo® Luminescent Cell […]

FKBP12 [4] = biological target: T3, FKBP12 (Homo sapiens, UniProt P62942); assay: Differential scanning calorimetry, FKBP12; type: binding; details: compound 40 µM
T3 construct: 6His-SUMO (N, cleaved yes); made in house; host or cells: E. coli (identical protocol to FBD35, BL21 DE3)
T3 sequence (P62942 whole entry): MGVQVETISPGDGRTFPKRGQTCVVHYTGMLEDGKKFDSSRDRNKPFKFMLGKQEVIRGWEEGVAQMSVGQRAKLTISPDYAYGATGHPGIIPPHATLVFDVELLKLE

[5] = Plasma stability assay, human; type: in vitro ADME; details: percent remaining, 1 µM, 37 °C, 5 hours
Method: as §1, §2
(§3) concentration, 100 mM stock in DMSO) and Carfilzomib (10 µM to 4.6 nM final concentration, 10 mM stock in DMSO) normalizing DMSO to 0.25%. Cells were then incubated at 37 °C, 5% CO2 for 72 hours. Following incubation, cells were treated with 70 µL CellTiter-Glo® Luminescent Cell Viability Assay Reagent (Promega, cat. G7570) and incubated in the dark at room temperature for 30 minutes. Plates were read using an EnVision Multimode Plate Reader (PerkinElmer). Cell viability data was normalized to DMSO controls and analyzed in GraphPad Prism 8 by fitting the data to “[Inhibitor] vs. normalized response – variable slope” model to obtain the curves.
(§4) Each compound was prepared in duplicate at 1 µM final concentration (0.2% DMSO) in human or mouse plasma (Aldrich). Samples were incubated at 37 °C for 5 hours with mixing at 350 rpm on an orbital shaker. Aliquots of each sample were taken at time zero and following 5 hours. Each sample was quenched by adding acetonitrile in a 3:1 ratio and further diluting with 50 µl of PBS.
(§5) After quenching, samples were centrifuged to pellet precipitated partic ulates and an aliquot of supernatant was diluted 1:1 with water. The resulting solution was analyzed by UPLC -MS/MS with compounds detected by MRM detection on a triple quadrupole mass spectrometer. The ratio of compound peak areas at 0 and 5 hours were use d to calculate the percent remaining.

FKBP12 [6] = biological target: T3, FKBP12; assay: Fluorescence polarization competition, FKBP12; type: binding
[7] = Plasma stability assay, mouse; type: in vitro ADME; details: percent remaining, 1 µM, 37 °C, 5 hours
Method: as §1, §2, §3, §4, §5

nLuc-tagged FKBP12 = biological target: T4, nLuc-tagged FKBP12 (Homo sapiens, UniProt P62942); assay: NanoBRET cellular target engagement, nLuc-FKBP12; type: cell-based
T4 construct: full length Plasmodium falciparum FKBP35 and human FKBP12 DNA were; expressed in transfected cells
T4 sequence (P62942 whole entry): as above

[8] = biological target: T1, FBD35 (PfFKBP35 binding domain); assay: Fluorescence polarization competition, FBD35
FKBP35 = biological target: T5, FKBP35 (Plasmodium falciparum, UniProt Q8I4V8); assay: Mass spec of FKBP35 incubated with D44 analogs; type: biochemical
T5 construct: FKBP35 Q5 -A128; 6His-SUMO (N, cleaved yes); made in house; host or cells: E. coli BL21 DE3
T5 sequence (Q8I4V8 5-128): as the sequence (Q8I4V8 5-128) above
Method: Prior to DSC experiments 400 µL of the reaction mixture was saved f or mass spectrometry analysis. For intact mass analysis, 100 µL of the reaction mixture was diluted to 0.05 mg/mL and injected onto a ZORBAX StableBond 300 C8 HPLC column [2.1 x 100 mm, 3.5 µm (Agilent)] on an Agilent HPLC binary pump system. Initial m obile phase conditions were 15% acetonitrile/85% water, both containing 0.1% formic acid. Protein was desalted for 2 minutes and eluted from the column with a gradient of 15% to 75% acetonitrile over 10 min. Intact mass measurement was performed on a Q Exa ctive mass spectrometer with an ESI source (Thermo Scientific). Source parameters: spray voltage, 3500 V; capillary temperature, 340°C; sheath gas, 35; auxiliary gas, 5; (gas flows in arbitrary units of the ESI source). MS detection was performed using a Full MS scan acquisition method, scanning over the range 800 -2100 m/z. BioPharma Finder v 3.0 (Thermo Fisher Scientific) was used for data acquisition and analysis. DSC and mass spectrometry experiments were performed in parallel.
For chymotrypsin digestion , 20 µL of the reaction mixture was added to 20 µL of fresh denaturing solution (0.1 M urea, 0.1 M NaCl, adjusted to 10 ml with 50 mM Tris Buffer pH 8.0). Then 10 µL of 10 mM TCEP was added to the mixture, which was then incubated at 37 °C for 60 minutes. To prevent modification of free thiol groups in FKBP proteins during digestion, 4 µL of 50 mM iodoacetamide (IAA, Sigma No. A3221) was added followed by incubation at room temperature in the dark for 30 minutes. After the incubation, the reaction mixture w as brought up to 200 µL with 140 µL of 10 mM Trizma pH 7.5. The peptide fragments were generated by adding chymotrypsin at a molar ratio of 1 chymotrypsin : 100 FKBP protein and incubated overnight at 37 °C. The reaction was quenched by adding 10 µL of form ic acid (~5% of total volume) followed by a few seconds of a vortex pulse.
Samples were analyzed using a Thermo Fisher Scientific Vanquish UHPLC connected to a Q Exactive HF mass spectrometer with a HESI source. Source parameters were as follows: spray voltage, 3500 V; capillary temperature, 300 °C; sheath gas flow, 45; auxiliary gas flow; 10; sweep gas flow, 1; (gas flows in arbitrary units of the HESI source). Digested samples were injected onto an ACQUITY UPLC BEH C18 Column [130Å, 1.7 µm, 2.1 mm X 50 mm (Waters)] held at 45 °C and desalted for 30 s with 5% acetonitrile/95% water, both containing 0.1% formic acid. Peptides were separated using a 5% to 65% acetonitrile gradient over 6.5 min. MS detection was performed using a Full MS/ddMS2 (Top 5) acquisi tion method, scanning over the range 300 -1800 m/z. […]
DSC thermograms were recorded in MicroCal DSC from Malvern with an autosampler. […]

[9] = Cell viability assay (CellTiter-Glo); type: cell-based; details: human
Method: as §1, §2, §3
Each compound was prepared in duplicate at 1 µM final concentration (0.2% DMSO) in human or mouse plasma (Aldrich). […]
After quenching, samples were centrifuged to pellet precipitated partic ulates and an aliquot of supernatant was diluted 1:1 with water. The resulting solution was analyzed by UPLC -MS/MS with compounds detected by MRM detection on a triple quadrupole mass spectrometer. […]

PBS solubility = details: pH 7.4
[10] = system: Plasmodium cultured parasites; details: Figure 1; read-out: IC50 in blood-stage antiplasmodium assays; cited from earlier work

CCC(=O)OCC(C)(C)C(=O)C(=O)N1CCCC[C@H]1C(=O)O[C@H](CCc1ccc(OC)c(OC)c1)c1ccccc1 [2d]
ΔTm at 40 µM [1]: 3 °C | IC50 [2]: 1310 nM | IC50 [3]: 9.9 µM | ΔTm at 40 µM (FKBP12 [4]): 5.9 °C | Plasma Stability (human) [5]: 1% | IC50 (FKBP12 [6]): 43 nM | Plasma Stability (mouse) [7]: 0% | IC50 (nLuc-tagged FKBP12): 454 nM | IC50 [8]: 99 nM

C=CC(=O)NCc1ccccc1NC(=O)CSc1nc2cccnc2[nH]1 [D44a]
% Abundance of modified FKBP35 (FKBP35; incubation temp 37 °C): 4.1% | % Abundance of modified FKBP35 (FKBP35; incubation temp RT): 11.5%

C=CC(=O)NCc1ccc(NC(=O)CSc2nc3cccnc3[nH]2)cc1 [D44c]
% Abundance of modified FKBP35 (FKBP35; incubation temp 37 °C): 37.0% | % Abundance of modified FKBP35 (FKBP35; incubation temp RT): 17.1%

CO[C@H]1C[C@@H]2CC[C@@H](C)[C@@](O)(O2)C(=O)C(=O)N2CCCC[C@H]2C(=O)O[C@H]([C@H](C)C[C@@H]2CC[C@@H](O)[C@H](OC)C2)CC(=O)[C@H](C)/C=C(\C)[C@@H](O)[C@@H](OC)C(=O)[C@H](C)C[C@H](C)/C=C/C=C/C=C/1C [Rapamycin, reference compound]
IC50 [3]: 1.1 µM | IC50 at 72 h ([9]; HEK293T cells, HEK293T, 72 hour treatment, read-out: IC50 cell viability): 63 µM

CCC(C)(C)C(=O)C(=O)N1CCCC[C@H]1C(=O)O[C@H](CCc1ccc(OC)c(OC)c1)c1cccc(OCC(=O)O)c1 [SLFb, reference compound]
solubility (PBS solubility): 59 µM (≈ 34.4 µg/mL) | ΔTm at 40 µM [1]: 2.8 °C | tracer displacement (in words), FKBP35 ([2]; NanoBRET, 2 h incubation): markedly reduced probe displacement | IC50 [3]: 33.7 µM | ΔTm at 40 µM (FKBP12 [4]): 6.6 °C | IC50 (FKBP12 [6]; fluorescence polarization, competitive inhibition model, read-out: FKBP12 IC50): 27 nM | tracer displacement (in words), FKBP12 (nLuc-tagged FKBP12; NanoBRET, 2 h incubation): markedly reduced probe displacement | IC50 [8]: 761 nM

CC[C@H]1CN(Cc2ccccn2)C(=O)[C@@H]2CCC[C@H]1N2S(=O)(=O)c1cc(Cl)cc(Cl)c1 [[4.3.1]-ABS]
IC50 [10]: 2300 nM

CC(C)C[C@H](NC(=O)[C@H](CCc1ccccc1)NC(=O)CN1CCOCC1)C(=O)N[C@@H](Cc1ccccc1)C(=O)N[C@@H](CC(C)C)C(=O)[C@@]1(C)CO1 [carfilzomib]
IC50 at 72 h [9]: 0.015 µM
